Assay results reported in patent US20230227466A1, “SUBSTITUTED THIENOPYRIMIDINES THAT INTERACT WITH THE RAS SUPERFAMILY FOR THE TREATMENT OF CANCERS, INFLAMMATORY DISEASES, RASOPATHIES, AND FIBROTIC DISEASE” (SHY Therapeutics, LLC, priority 2020, published 2023).

Legend:
[1] = test system: ERK1/2 phosphorylation in Panc-1 cells; assay: Western ERK1/2 cell-based phosphorylation assay; design: species or system human; settings: at 10 μM, values in brackets < > are activation %, not inhibition
Method: Cell lines: Human tumor-derived pancreatic cancer cell line Panc-1 was purchased from American Type Culture Collection and grown in complete DMEM-High Glucose, supplemented with penicillin (100 U/mL), streptomycin (100 μg/mL), and 10% heat-inactivated FBS at 37° C. in a humidified incubator with 5% CO2.
(§1) Method: Cells were plated at 350000 cells/well density in a 12-well plate, allowed 3 hours to adhere to the plate, then starved in the appropriate medium in the presence of 0.5% FBS overnight. The small molecules to be tested were added to the cells in the final concentration of 10 μM in the presence of 0.3% DMSO for 6 hours incubation at 37° C. For IC50 value determination, serial dilutions of compounds were added to cells under the same conditions. Next, cells were stimulated with 1.5 ng/ml EGF for 15 minutes then cells were lysed with lysis buffer containing 1% Triton X-100, EDTA, and Halt™ Protease & Phosphatase Inhibitor Cocktail (Thermo Scientific). Protein concentration was assessed by BCA protein assay (Thermo Scientific). Phosphorylation level of ERK1/2 was determined by western blot.
(§2) Western blot protocol: Equal amounts of protein (15-50 μg) were separated by SDS-PAGE and transferred to nitrocellulose membranes (Invitrogen by Thermo Fisher Scientific). The membrane was stained with Ponceau S Stain (Boston BioProducts) to verify uniform protein loading. Membranes were blocked with 10% milk and phosphorylation levels of ERK1/2 were assessed by incubating overnight at 4° C. with anti-phospho-p44/42 (Thr202/Tyr204) antibody (Cell Signaling) followed by HRP-conjugated secondary antibody (Jackson Immunoresearch, West Grove, Pa.). Bands were incubated in Amersham ECL Prime Western Blotting Detection Reagent (GE Healthcare) and visualized using the ChemiDoc MP imaging system (Bio-Rad). Protocol for Western AKT cell-based phosphorylation assay

[2] = test system: Akt phosphorylation in Panc-1 cells; assay: Western AKT cell-based phosphorylation assay; design: species or system human; settings: at 10 μM, values in brackets < > are activation %, not inhibition
Method: Human Tumor-Derived Pancreatic Cancer Cell Line Panc-1 was Purchased from
American Type Culture Collection and grown in complete DMEM-High Glucose supplemented with penicillin (100 U/mL), streptomycin (100 μg/mL), and 10% heat-inactivated FBS at 37° C. in a humidified incubator with 5% CO2.
as §1, with “C.” for “C. For IC50 value determination, serial dilutions of compounds were added to cells under the same conditions.”, “Akt” for “ERK1/2”
as §2, with “Akt” for “ERK1/2”, “anti-phospho-Akt (Ser473)” for “anti-phospho-p44/42 (Thr202/Tyr204)”, “(Bio-Rad).” for “(Bio-Rad). Protocol for Western AKT cell-based phosphorylation assay”

SMILES	% inh of ERK1/2 phosphorylation in PANC-1 [1]	% inh of AKT phosphorylation in PANC-1 [2]
CO[C@H]1CC[C@@H](Nc2nc(C(=O)Nc3ccccc3)nc3sccc23)C1 (racemic) [Compound 15, rac-4-(((1R,3S)-3-Methoxycyclopentyl)amino)-N-phenylthieno[2,3-d]pyrimidine-2-carboxamide]	0 (0% inhibition)	0 (0% inhibition)
Cc1c(-c2ccn(C(C)C)n2)sc2nc(-c3nccn3C)nc(NCCC3CCC(=O)N3)c12 (racemic) [Compound 56, rac-5-(2-((6-(1-Isopropyl-1H-pyrazol-3-yl)-5-methyl-2-(1-methyl-1H-imidazol-2-yl)thieno[2,3-d]pyrimidin-4-yl)amino)ethyl)pyrrolidin-2-one]	0 (0% inhibition)	0 (0% inhibition)
Cc1c(-c2ccn(C(C)C)n2)sc2nc(-c3nccn3C)nc(NCCc3ncc[nH]3)c12 [Compound 53, N-(2-(1H-Imidazol-2-yl)ethyl)-6-(1-isopropyl-1H-pyrazol-3-yl)-5-methyl-2-(1-methyl-1H-imidazol-2-yl)thieno[2,3-d]pyrimidin-4-amine]	0 (0% inhibition)	0 (0% inhibition)
Cc1c(-c2ccn(C(C)C)n2)sc2nc(-c3nccn3C)nc(NCc3ncc[nH]3)c12 [Compound 57, N-((1H-Imidazol-2-yl)methyl)-6-(1-isopropyl-1H-pyrazol-3-yl)-5-methyl-2-(1-methyl-1H-imidazol-2-yl)thieno[2,3-d]pyrimidin-4-amine]	A (1-25% inhibition)	0 (0% inhibition)
CO[C@H]1CC[C@@H](Nc2nc(C(N)=O)nc3sccc23)C1 (racemic) [Compound 11, Rac-4-(((1R,3S)-3-methoxycyclopentyl)amino)thieno[2,3-d]pyrimidine-2-carboxamide]	0 (0% inhibition)	0 (0% inhibition)
Oc1nc(-c2nccn2CCOCC(F)(F)F)nc2c(-c3ccccn3)csc12 [Compound 81, 7-(Pyridin-2-yl)-2-(1-(2-(2,2,2-trifluoroethoxy)ethyl)-1H-imidazol-2-yl)thieno[3,2-d]pyrimidin-4-ol]	B (26-50% inhibition)	<D>
COCC1CCN(c2nc(-c3nccn3C)nc3sc(-c4ccn(C(C)C)n4)c(C(F)(F)F)c23)C1 (racemic) [Compound 74, Rac-6-(1-Isopropyl-1H-pyrazol-3-yl)-4-(3-(methoxymethyl)pyrrolidin-1-yl)-2-(1-methyl-1H-imidazol-2-yl)-5-(trifluoromethyl)thieno[2,3-d]pyrimidine]	D (76-100% inhibition)	0 (0% inhibition)
COC1CCCN(c2nc(-c3ccccn3)nc3sc(-c4ccn(C(C)C)n4)c(C)c23)C1 (racemic) [Compound 70, Rac-6-(1-Isopropyl-1H-pyrazol-3-yl)-4-(3-methoxypiperidin-1-yl)-5-methyl-2-(pyridin-2-yl)thieno[2,3-d]pyrimidine]	0 (0% inhibition)	0 (0% inhibition)
CO[C@H]1CC[C@@H](Nc2nc(C(N)=O)nc3sc(-c4ccn(C(C)C)n4)cc23)C1 (racemic) [Compound 17, Rac-6-(1-isopropyl-1H-pyrazol-3-yl)-4-(((1R,3S)-3-methoxycyclopentyl)amino)thieno[2,3-d]pyrimidine-2-carboxamide]	A (1-25% inhibition)	0 (0% inhibition)
Cc1c(-c2ccn(C(C)C)n2)sc2nc(-c3ccccn3)nc(N3CCC(COC(C)C)C3)c12 (stereo not shown) [Compound 72, 4-(3-(Isopropoxymethyl)pyrrolidin-1-yl)-6-(1-isopropyl-1H-pyrazol-3-yl)-5-methyl-2-(pyridin-2-yl)thieno[2,3-d]pyrimidine]	D (76-100% inhibition)	B (26-50% inhibition)
O=C(Nc1ccccn1)c1nc(O)c2scc(-c3ccccn3)c2n1 [Compound 24, 4-Hydroxy-N,7-di(pyridin-2-yl)thieno[3,2-d]pyrimidine-2-carboxamide]	0 (0% inhibition)	0 (0% inhibition)
O=C(c1nc(O)c2scc(-c3ccccn3)c2n1)N1CCOCC1 [Compound 22, (4-Hydroxy-7-(pyridin-2-yl)thieno[3,2-d]pyrimidin-2-yl)(morpholino)methanone]	0 (0% inhibition)	0 (0% inhibition)
Oc1nc(-c2nccn2CCOCc2ccccc2)nc2c(-c3ccccn3)csc12 [Compound 83, 2-(1-(2-(Benzyloxy)ethyl)-1H-imidazol-2-yl)-7-(pyridin-2-yl)thieno[3,2-d]pyrimidin-4-ol]	B (26-50% inhibition)	<D>
O=C(Nc1ccccc1)c1nc(O)c2scc(-c3ccccn3)c2n1 [Compound 23, 4-Hydroxy-N-phenyl-7-(pyridin-2-yl)thieno[3,2-d]pyrimidine-2-carboxamide]	0 (0% inhibition)	0 (0% inhibition)
Cc1c(-c2ccn(C(C)C)n2)sc2nc(-c3nccn3C)nc(NC3CCOC3)c12 (racemic) [Compound 37, rac-6-(1-Isopropyl-1H-pyrazol-3-yl)-5-methyl-2-(1-methyl-1H-imidazol-2-yl)-N-(tetrahydrofuran-3-yl)thieno[2,3-d]pyrimidin-4-amine]	0 (0% inhibition)	0 (0% inhibition)
O=C(c1nc(O)c2scc(-c3ccccn3)c2n1)N1CCCC1 [Compound 19, (4-Hydroxy-7-(pyridin-2-yl)thieno[3,2-d]pyrimidin-2-yl)(pyrrolidin-1-yl)methanone]	0 (0% inhibition)	0 (0% inhibition)
Cc1c(-c2ccn(C(C)C)n2)sc2nc(-c3nccn3C)nc(NC[C@@H]3CCC(=O)N3)c12 [Compound 51]	0 (0% inhibition)	0 (0% inhibition)
Cc1c(-c2ccn(C(C)C)n2)sc2nc(-c3nccn3C)nc(NCc3c[nH]cn3)c12 [Compound 59, N-((1H-Imidazol-4-yl)methyl)-6-(1-isopropyl-1H-pyrazol-3-yl)-5-methyl-2-(1-methyl-1H-imidazol-2-yl)thieno[2,3-d]pyrimidin-4-amine]	0 (0% inhibition)	0 (0% inhibition)
CC(C)NC(=O)c1nc(O)c2scc(-c3ccccn3)c2n1 [Compound 20, 4-Hydroxy-N-isopropyl-7-(pyridin-2-yl)thieno[3,2-d]pyrimidine-2-carboxamide]	0 (0% inhibition)	0 (0% inhibition)
COCCn1ccnc1-c1nc(N[C@@H]2CC[C@H](OC)C2)c2ccsc2n1 (racemic) [Compound 8, Rac-N-((1R,3S)-3-methoxycyclopentyl)-2-(1-(2-methoxyethyl)-1H-imidazol-2-yl)thieno[2,3-d]pyrimidin-4-amine]	0 (0% inhibition)	0 (0% inhibition)
